Data from US20230124862A1, “BISMUTH THIOL COMPOUNDS AND COMPOSITIONS AND METHODS OF TREATING MICROBIAL CO-INFECTIONS” (Microbion Corporation, priority 2020, published 2023).
“And” between values parts separate entries of the source, which are not always exact repeats. Equal values may be shown once. Read-outs that look alike come from different tables or passages of the source.

Assay type: in vivo, beagle dogs
Protocol: Once adequately conditioned to the restraint device and face-masks, the animals are individually exposed to the test article aerosols. Animals receive a single face-mask inhalation exposure in a ramp study design to test article aerosols for up to 60 min. Animal observations during and post exposure determine the tolerance of inhaled BisEDT aerosols.
Blood Collections and Bioanalytical Analysis: Blood are collected for pharmacokinetic (PK) analysis prior to exposure, then at 4 hr (±5 min) post exposure, and again on Day 1, Day 2, Day 7 (pre- and 4 hr (±5 min)-post exposure), Day 8, Day 9, Day 10, Day 11, Day 12, Day 13, and Day 14. A total of 0.25 mL is collected at each timepoint. No PK blood is collected from the vehicle control (Group 1) animals; only animals exposed to BisEDT have blood collected for PK analysis. Collected samples are flash frozen without processing for shipment to Medpace for bioanalytical analysis. Additional blood is collected from all animals in all groups for hematology (1 mL) and clinical chemistry (1 mL) at baseline, Day 7 (pre-exposure), and again at euthanasia. Blood (2-2 mL) is collected from all animals at necropsy for coagulation analysis (d-Dimer, fibrinogen, PT, and PTT).
For clinical chemistry analyses, whole blood (1 mL) is placed into serum separator or clot tube and […] by centrifugation at a minimum of 1300 g at 2 to 8° C. for 10 (±1) min. Plasma samples are stored at −70 to −90° C. until analysis.
Clinical chemistry samples are analyzed on a Hitachi Modular Analytics Clinical Chemistry System (Roche Diagnostics, Indianapolis, Ind.).

In the case of `C1C[S][Bi]([S]CC[S][Bi]2[S]CC[S]2)[S]1` [BisEDT, Bismuth-1,2-ethanedithiol], the GGT (dog 4002 Female) is reported as 3 IU/L, the GLOB (dog 4002 Female) is reported as 2.1 g/dL and 2.0 g/dL and the GLUC (dog 4002 Female) is reported as 106 mg/dL and 79 mg/dL. The K (dog 4002 Female) was 5.3 mmo/L, the Na (dog 4002 Female) was 153 mmo/L and 149 mmo/L and the TBIL (dog 4002 Female) was 0.15 mg/dL. For the same compound, the TP (dog 4002 Female) was 5.6 g/dL and 5.5 g/dL, the TRIG (dog 4002 Female) was 34 mg/dL and 41 mg/dL and the AGR (dog 4003 Male) was 1.8 and 1.6. For the same compound, the ALB (dog 4003 Male) was 3.5 g/dL and 3.3 g/dL, the ALPK (dog 4003 Male) was 146 IU/L and 129 IU/L and the ALT (dog 4003 Male) was 40 IU/L and 23 IU/L. The AST (dog 4003 Male) was 30 IU/L and 33 IU/L, the BUN (dog 4003 Male) was 16 mg/dL and 15 mg/dL and the CA2 (dog 4003 Male) was 11.2 mg/dL and 11.0 mg/dL. For the same compound, the CHOL (dog 4003 Male) was 152 mg/dL and 176 mg/dL, the CREA (dog 4003 Male) was 0.6 mg/dL and 0.7 mg/dL and the Cl (dog 4003 Male) was 117 mmo/L and 112 mmo/L. For the same compound, the GGT (dog 4003 Male) was 3 IU/L, the GLOB (dog 4003 Male) was 1.9 g/dL and 2.1 g/dL and the GLUC (dog 4003 Male) was 109 mg/dL and 81 mg/dL. For the same compound, the K (dog 4003 Male) was 4.9 mmo/L, the Na (dog 4003 Male) was 149 mmo/L and 147 mmo/L and the TBIL (dog 4003 Male) was 0.15 mg/dL. For the same compound, the TP (dog 4003 Male) was 5.4 g/dL, the TRIG (dog 4003 Male) was 55 mg/dL and 53 mg/dL and the AGR (dog 4004 Female) was 2.0 and 1.7 and 1.9. For the same compound, the ALB (dog 4004 Female) was 3.4 g/dL and 3.3 g/dL, the ALPK (dog 4004 Female) was 103 IU/L and 93 IU/L and 95 IU/L and the ALT (dog 4004 Female) was 28 IU/L and 25 IU/L and 24 IU/L. For the same compound, the AST (dog 4004 Female) was 33 IU/L and 38 IU/L and 31 IU/L, the BUN (dog 4004 Female) was 13 mg/dL and the CA2 (dog 4004 Female) was 10.8 mg/dL and 10.6 mg/dL. The CHOL (dog 4004 Female) was 125 mg/dL and 124 mg/dL and 112 mg/dL, the CREA (dog 4004 Female) was 0.6 mg/dL and the Cl (dog 4004 Female) was 119 mmo/L and 115 mmo/L and 114 mmo/L. For the same compound, the GGT (dog 4004 Female) was 3 IU/L, the GLOB (dog 4004 Female) was 1.7 g/dL and 1.9 g/dL and the GLUC (dog 4004 Female) was 102 mg/dL and 70 mg/dL and 96 mg/dL. For the same compound, the K (dog 4004 Female) was 4.6 mmo/L and 5.1 mmo/L and 4.3 mmo/L, the Na (dog 4004 Female) was 153 mmo/L and 148 mmo/L and 146 mmo/L and the TBIL (dog 4004 Female) was 0.15 mg/dL. For the same compound, the TP (dog 4004 Female) was 5.1 g/dL and 5.2 g/dL and 5.0 g/dL, the TRIG (dog 4004 Female) was 53 mg/dL and 49 mg/dL and 44 mg/dL and the AGR (dogs, Grp 2 Avg) was 1.8 and 2.2 and 2.1. The ALB (dogs, Grp 2 Avg) was 3.3 g/dL and 3.5 g/dL and 3.6 g/dL, the ALPK (dogs, Grp 2 Avg) was 186 IU/L and 126 IU/L and 116 IU/L and the ALT (dogs, Grp 2 Avg) was 20 IU/L and 26 IU/L and 25 IU/L. For the same compound, the AST (dogs, Grp 2 Avg) was 42 IU/L and 39 IU/L and 37 IU/L, the BUN (dogs, Grp 2 Avg) was 13 mg/dL and 15 mg/dL and the CA2 (dogs, Grp 2 Avg) was 10.9 mg/dL and 10.8 mg/dL. The CHOL (dogs, Grp 2 Avg) was 153 mg/dL and 145 mg/dL and 133 mg/dL, the CREA (dogs, Grp 2 Avg) was 0.7 mg/dL and 0.6 mg/dL and the Cl (dogs, Grp 2 Avg) was 110 mmo/L and 114 mmo/L and 111 mmo/L. For the same compound, the GGT (dogs, Grp 2 Avg) was 3 IU/L, the GLOB (dogs, Grp 2 Avg) was 1.8 g/dL and 1.7 g/dL and the GLUC (dogs, Grp 2 Avg) was 93 mg/dL and 98 mg/dL and 96 mg/dL. For the same compound, the K (dogs, Grp 2 Avg) was 4.8 mmo/L and 5.1 mmo/L and 4.7 mmo/L, the Na (dogs, Grp 2 Avg) was 149 mmo/L and 147 mmo/L and 148 mmo/L and the TBIL (dogs, Grp 2 Avg) was 0.15 mg/dL. For the same compound, the TP (dogs, Grp 2 Avg) was 5.1 g/dL and 5.2 g/dL and 5.4 g/dL, the TRIG (dogs, Grp 2 Avg) was 52 mg/dL and 60 mg/dL and 47 mg/dL and the AGR (dogs, Grp 3 Avg) was 2.2 and 1.9 and 2.4. For the same compound, the ALB (dogs, Grp 3 Avg) was 3.4 g/dL and 3.5 g/dL and 3.6 g/dL, the ALPK (dogs, Grp 3 Avg) was 153 IU/L and 113 IU/L and 149 IU/L and the ALT (dogs, Grp 3 Avg) was 27 IU/L and 22 IU/L and 21 IU/L. For the same compound, the AST (dogs, Grp 3 Avg) was 30 IU/L and 32 IU/L, the CA2 (dogs, Grp 3 Avg) was 11.0 mg/dL and 10.7 mg/dL and 10.2 mg/dL and the CHOL (dogs, Grp 3 Avg) was 113 mg/dL and 143 mg/dL and 126 mg/dL. The CREA (dogs, Grp 3 Avg) was 0.6 mg/dL and 1.0 mg/dL, the Cl (dogs, Grp 3 Avg) was 112 mmo/L and 110 mmo/L and the GGT (dogs, Grp 3 Avg) was 3 IU/L. The GLOB (dogs, Grp 3 Avg) was 1.6 g/dL and 1.9 g/dL and 1.5 g/dL, the GLUC (dogs, Grp 3 Avg) was 106 mg/dL and 89 mg/dL and 58 mg/dL and the K (dogs, Grp 3 Avg) was 5.1 mmo/L and 5.2 mmo/L and 5.9 mmo/L. For the same compound, the Na (dogs, Grp 3 Avg) was 148 mmo/L and 146 mmo/L and 149 mmo/L, the TBIL (dogs, Grp 3 Avg) was 0.15 mg/dL and the TP (dogs, Grp 3 Avg) was 4.9 g/dL and 5.3 g/dL and 5.1 g/dL. For the same compound, the TRIG (dogs, Grp 3 Avg) was 30 mg/dL and 39 mg/dL and 55 mg/dL, the AGR (dogs, Grp 4 Avg) was 2.2 and 1.8 and 1.9 and the ALB (dogs, Grp 4 Avg) was 3.5 g/dL and 3.4 g/dL and 3.3 g/dL. The ALPK (dogs, Grp 4 Avg) was 103 IU/L and 104 IU/L and 107 IU/L, the ALT (dogs, Grp 4 Avg) was 28 IU/L and 26 IU/L and the AST (dogs, Grp 4 Avg) was 33 IU/L and 39 IU/L. For the same compound, the BUN (dogs, Grp 4 Avg) was 12 mg/dL and 13 mg/dL, the CA2 (dogs, Grp 4 Avg) was 10.8 mg/dL and 10.7 mg/dL and 10.5 mg/dL and the CHOL (dogs, Grp 4 Avg) was 139 mg/dL and 136 mg/dL and 112 mg/dL. The CREA (dogs, Grp 4 Avg) was 0.7 mg/dL and 0.6 mg/dL, the Cl (dogs, Grp 4 Avg) was 120 mmo/L and 116 mmo/L and 114 mmo/L and the GGT (dogs, Grp 4 Avg) was 3 IU/L. The GLOB (dogs, Grp 4 Avg) was 1.7 g/dL and 1.9 g/dL, the GLUC (dogs, Grp 4 Avg) was 102 mg/dL and 76 mg/dL and 91 mg/dL and the K (dogs, Grp 4 Avg) was 4.7 mmo/L and 5.0 mmo/L and 4.5 mmo/L. For the same compound, the Na (dogs, Grp 4 Avg) was 153 mmo/L and 148 mmo/L and 146 mmo/L, the TBIL (dogs, Grp 4 Avg) was 0.15 mg/dL and the TP (dogs, Grp 4 Avg) was 5.2 g/dL and 5.3 g/dL and 5.0 g/dL. The TRIG (dogs, Grp 4 Avg) was 51 mg/dL and 48 mg/dL and 42 mg/dL.
